Literature values as cited in patent publication US6262108A, “Medicinal use of cromoglycic acid compounds” (Kyoto Pharmaceutical Industries, Ltd., priority 1997, dated 2001).
Counter-ions that a name gives are not always drawn.

How the values were obtained:
[1] = system: contact dermatitis and atopic dermatitis; details: background statement on conventional antiallergic agents; cited from earlier work
[2] = system: type IV allergic reaction; details: background statement, postulated, with literature references; cited from earlier work

| SMILES | therapeutic effects on contact dermatitis and atopic dermatitis [1] | type IV allergic reaction-inhibitory action [2] |
| --- | --- | --- |
| CCOCCn1c(N2CCCN(C)CC2)nc2ccccc21 [emedastine difumarate] | either ineffective or fail to show satisfactory therapeutic effects | failure to show a type IV allergic reaction-inhibitory action |
| NC1=NCC2c3ccccc3Cc3ccccc3N12 (stereo not drawn) [epinastine hydrochloride] | either ineffective or fail to show satisfactory therapeutic effects | failure to show a type IV allergic reaction-inhibitory action |
| O=c1[nH]c2ccccc2n1CCCN1CCN(C(c2ccccc2)c2ccccc2)CC1 [oxatomide] | either ineffective or fail to show satisfactory therapeutic effects | failure to show a type IV allergic reaction-inhibitory action |
| Cc1cccn2c(=O)c(-c3nnn[nH]3)cnc12 [pemirolast potassium] | either ineffective or fail to show satisfactory therapeutic effects | failure to show a type IV allergic reaction-inhibitory action |
| Cc1ccc2c([nH]c(=O)c3c(=O)cc(C(=O)OCCC(C)C)oc32)c1C [repirinast] | either ineffective or fail to show satisfactory therapeutic effects | failure to show a type IV allergic reaction-inhibitory action |
| COc1ccc(/C=C/C(=O)Nc2ccccc2C(=O)O)cc1OC [tranilast] | either ineffective or fail to show satisfactory therapeutic effects | failure to show a type IV allergic reaction-inhibitory action |
